Results published in patent publication US8288371B2, “Ortho pyrrolidine, benzyl-substituted heterocycle CCR1 antagonists for autoimmune diseases and inflammation” (Pharmacopeia, LLC, priority 2007, dated 2012).

Biological target: T1, human CCR1 (Homo sapiens, UniProt P32246)
T1 sequence (P32246 1-355): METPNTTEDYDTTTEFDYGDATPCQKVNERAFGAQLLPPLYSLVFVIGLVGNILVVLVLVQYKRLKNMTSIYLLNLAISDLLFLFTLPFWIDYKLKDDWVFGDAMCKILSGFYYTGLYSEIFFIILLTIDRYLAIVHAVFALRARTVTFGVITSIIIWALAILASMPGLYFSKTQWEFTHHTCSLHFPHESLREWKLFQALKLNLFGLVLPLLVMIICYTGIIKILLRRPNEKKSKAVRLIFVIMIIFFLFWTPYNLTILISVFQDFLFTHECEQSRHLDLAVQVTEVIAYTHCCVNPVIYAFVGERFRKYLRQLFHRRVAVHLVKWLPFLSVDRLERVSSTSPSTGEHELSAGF
Assay: CCR1 binding protocol (SPA, [125I]-MIP-1α displacement)
Details: cell membrane expressing human CCR1, 0.1 nM [125I]-MIP-1α, 4 hours at ambient temperature; read-out: Relative potency (IC50)
How it was run: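 Displacement of 0.1 nM [125I]-MIP-1α (final) from membranes expressing human CCR1 was measured by scintillation proximity after 4 h at ambient temperature. Conditions: pH 7.4 Tris buffer with 0.1% BSA and MnCl, and 0.5 μg membrane per well. Compounds were tested as a 10-step ½-log series from a 10 mM DMSO stock to derive IC50.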

IC50 [nM] | SMILES
< 50 | CC[C@H](NC(=O)N1CCC[C@@H]1c1nnc(C)n1Cc1ccc(F)cc1)c1cc2ccccc2o1 [Compound 586]
< 50 | Cc1cc(C)c(S(=O)(=O)N(C)C)cc1NC(=O)N1CCC[C@@H]1c1nnc(C)n1Cc1ccc(F)cc1 [Compound 587]
50 to 500 | CC[C@H](Nc1c(N2CCC[C@@H]2c2nnc(C)n2Cc2ccc(Cl)cc2)c(=O)c1=O)c1cc2ccccc2o1 [Compound 588]
50 to 500 | CC[C@H](Nc1c(N2CCC[C@@H]2c2nnc(C)n2Cc2ccc(Cl)cc2)c(=O)c1=O)c1ccc(C(F)(F)F)cc1 [Compound 589]
50 to 500 | Cc1onc(NC(=O)N2CCC[C@@H]2c2nnc(C)n2Cc2ccc(Cl)cc2)c1F [Compound 590]
500 to 5000 | Cc1nnc([C@H]2CCCN2C(=O)NCC2CN(S(C)(=O)=O)C2)n1Cc1ccc(Cl)cc1 [Compound 591]
50 to 500 | CC(=O)N1CCC(CNC(=O)N2CCC[C@@H]2c2nnc(C)n2Cc2ccc(Cl)cc2)C1 (stereo partly drawn) [Compound 592]
50 to 500 | Cc1nnc([C@H]2CCCN2C(=O)NCC2CCN(S(C)(=O)=O)C2)n1Cc1ccc(Cl)cc1 (stereo partly drawn) [Compound 593]
500 to 5000 | Cc1nnc([C@H]2CCCN2C(=O)NCC2CCOC2)n1Cc1ccc(Cl)cc1 (stereo partly drawn) [Compound 594]
50 to 500 | Cc1nnc([C@H]2CCCN2C(=O)Nc2cc(-c3ccc(Cl)cc3)nn2C)n1Cc1ccc(Cl)cc1 [Compound 595]
500 to 5000 | Cc1nc(NC(=O)N2CCC[C@@H]2c2nnc(C)n2Cc2ccc(Cl)cc2)sc1C [Compound 596]
500 to 5000 | Cc1sc(NC(=O)N2CCC[C@@H]2c2nnc(C)n2Cc2ccc(Cl)cc2)nc1-c1ccccc1 [Compound 597]
50 to 500 | CC(=O)N1CCC(CNC(=O)N2CCC[C@@H]2c2nnc(C)n2Cc2ccc(Cl)cc2)CC1 [Compound 598]
50 to 500 | CC(=O)N1CCCC(CNC(=O)N2CCC[C@@H]2c2nnc(C)n2Cc2ccc(Cl)cc2)C1 (stereo partly drawn) [Compound 599]
50 to 500 | Cc1nnc([C@H]2CCCN2C(=O)NCC2CCN(S(C)(=O)=O)CC2)n1Cc1ccc(Cl)cc1 [Compound 600]
50 to 500 | Cc1nnc([C@H]2CCCN2C(=O)NCC2CCCN(S(C)(=O)=O)C2)n1Cc1ccc(Cl)cc1 (stereo partly drawn) [Compound 601]
50 to 500 | Cc1nnc([C@H]2CCCN2C(=O)NCCC2CCCCO2)n1Cc1ccc(Cl)cc1 (stereo partly drawn) [Compound 602]
500 to 5000 | Cc1nnc([C@H]2CCCN2C(=O)Nc2ccc3[nH]ccc3c2)n1Cc1ccc(Cl)cc1 [Compound 603]
< 50 | CC(=O)N1CCC(NC(=O)N2CCC[C@@H]2c2nnc(C)n2Cc2ccc(Cl)cc2)c2ccccc21 (stereo partly drawn) [Compound 604]
50 to 500 | Cc1nc(C(F)(F)F)ccc1N/C(=N\O)N1CCC[C@@H]1c1nnc(C)n1Cc1ccc(Cl)cc1 [Compound 605]
< 50 | Cc1nnc([C@H]2CCCN2C(=S)Nc2ccc(Cl)cc2F)n1Cc1ccc(Cl)cc1 [Compound 606]
< 50 | Cc1nc(C(F)(F)F)ccc1NC(=S)N1CCC[C@@H]1c1nnc(C)n1Cc1ccc(Cl)cc1 [Compound 607]
< 50 | Cc1nnc([C@H]2CCCN2C(=S)Nc2ccc(C(F)(F)F)cc2)n1Cc1ccc(Cl)cc1 [Compound 608]
50 to 500 | Cc1cc(C)c(S(=O)(=O)N(C)C)cc1Nc1c(N2CCC[C@@H]2c2nnc(C)n2Cc2ccc(Cl)cc2)c(=O)c1=O [Compound 609]
< 50 | Cc1nc(C(F)(F)F)ccc1CC(=O)N1CCC[C@@H]1c1nnc(C)n1Cc1ccc(Cl)cc1 [Compound 610]
< 50 | Cc1noc(C)c1N/C(=C\[N+](=O)[O-])N1CCC[C@@H]1c1nnc(C)n1Cc1ccc(Cl)cc1 [Compound 611]

IC50 [nM] | SMILES
50 to 500 | Cc1nnc([C@H]2CCCN2/C(=C/[N+](=O)[O-])NCc2ccc(Cl)cc2Cl)n1Cc1ccc(Cl)cc1 [Compound 612]
50 to 500 | Cc1nnc([C@H]2CCCN2/C(=C/[N+](=O)[O-])Nc2ccc(Cl)cc2F)n1Cc1ccc(Cl)cc1 [Compound 613]
< 50 | CC[C@H](N/C(=C/[N+](=O)[O-])N1CCC[C@@H]1c1nnc(C)n1Cc1ccc(Cl)cc1)c1ccc(C(F)(F)F)nc1 [Compound 614]
< 50 | Cc1onc(C(F)(F)F)c1NC(=O)N1CCC[C@@H]1c1nnc(C)n1Cc1ccc(Cl)cc1 [Compound 615]
< 50 | Cc1noc(C(F)(F)F)c1NC(=O)N1CCC[C@@H]1c1nnc(C)n1Cc1ccc(Cl)cc1 [Compound 616]
50 to 500 | Cc1nc(C(F)(F)F)ccc1CC(=O)N1CCC[C@@H]1c1ncnn1Cc1ccc(Cl)cc1 [Compound 617]
< 50 | Cc1nc(C(F)(F)F)ccc1CC(=O)N1CCC[C@@H]1c1nncn1Cc1ccc(Cl)cc1 [Compound 618]
< 50 | Cc1nc(C(F)(F)F)ccc1CC(=O)N1C[C@@H](O)C[C@@H]1c1nnc(C)n1Cc1ccc(Cl)cc1 [Compound 619]
500 to 5000 | Cc1nnc([C@H]2CCCN2C(=O)Nc2cccc(-c3ccnn3C)c2)n1Cc1ccc(Cl)cc1 [Compound 620]
50 to 500 | Cc1nnc([C@H]2CCCN2C(=O)Nc2cccc(-c3ccn(C)n3)c2)n1Cc1ccc(Cl)cc1 [Compound 621]
< 50 | Cc1nnc([C@H]2CCCN2C(=O)NCc2ccccc2-c2cc(C(F)(F)F)nn2C)n1Cc1ccc(Cl)cc1 [Compound 622]
500 to 5000 | Cc1nnc([C@H]2CCCN2C(=O)NCC2(c3cccs3)CCOCC2)n1Cc1ccc(Cl)cc1 [Compound 623]
< 50 | Cc1nc(C(F)(F)F)ccc1[C@H](C)NC(=O)N1CCC[C@@H]1c1nnc(C)n1Cc1ccc(Cl)cc1 [Compound 624]
< 50 | CC[C@H](NC(=O)N1CCC[C@@H]1c1nnc(C)n1Cc1ccc(Cl)cc1)c1ccc(C)nc1C [Compound 625]
50 to 500 | Cc1ccc([C@H](C)NC(=O)N2CCC[C@@H]2c2nnc(C)n2Cc2ccc(Cl)cc2)c(C)n1 [Compound 626]
< 50 | CC[C@H](NC(=O)N1CCC[C@@H]1c1nnc(C)n1Cc1ccc(Cl)cc1)c1ccc(C(F)(F)F)nc1C [Compound 627]
50 to 500 | O=C(Nc1ccc(Cl)cc1F)N1CCC[C@@H]1c1nnsc1Cc1ccc(Cl)cc1 [Compound 628]
50 to 500 | Cc1noc(C)c1CC(=O)N1CCC[C@@H]1c1nncn1Cc1ccc(Cl)cc1 [Compound 629]
50 to 500 | Cc1noc(C)c1CC(=O)N1C[C@@H](O)C[C@@H]1c1nnc(C)n1Cc1ccc(Cl)cc1 [Compound 630]
500 to 5000 | Cc1noc(C)c1CC(=O)N1CCC[C@@H]1c1ncnn1Cc1ccc(Cl)cc1 [Compound 631]
< 50 | Cc1nc(C(F)(F)F)ccc1NC(=O)N1CCC[C@@H]1c1nnsc1Cc1ccc(Cl)cc1 [Compound 632]
50 to 500 | Cc1nnc([C@H]2CCCN2C(=O)Nc2ccc(C(F)(F)F)nc2)n1Cc1ccc(Cl)cc1 [Compound 633]
< 50 | CCc1cc(Cn2c(C)nnc2[C@H]2CCCN2C(=O)Nc2ccc(C(F)(F)F)nc2C)ccc1Cl [Compound 634]
50 to 500 | CCc1cc(Cn2c(C)nnc2[C@H]2CCCN2C(=O)Nc2ccc(Cl)cc2F)ccc1Cl [Compound 635]
< 50 | Cc1nc(C(F)(F)F)ccc1NC(=O)N1CC=C[C@@H]1c1nnc(C)n1Cc1ccc(Cl)cc1 [Compound 636]
